The text below walks through data of US7196057B2, “Fusion proteins for insect control” (University of Durham, priority 2001, dated 2007).

Entries after “also recorded” stand apart in the source; their conditions may differ.

Assay [1] relates to Vth stadium L. oleracea larvae. The assay is described as follows: Insect bioassay 1: artificial diet feeding, 24 h. The assay is classed as in vivo, Lacanobia oleracea. To be noted: 1.5% of dietary protein (1.5 mg/5 g diet), 24 h exposure, n=7. The procedure:
(§1) A potato leaf based artificial diet (24) was used to assay recombinant proteins against newly moulted Vth stadium L. oleracea which were starved for 24 h prior to exposure to diets. To encourage feeding, sucrose was incorporated at 0.05% (w/w) in assays 2 A and B and at 0.5% (w/w) in assay 3. Individual larvae were maintained in clear plastic pots containing moist filter paper to prevent diet desiccation. Larval wet weights (−/+0.1 mg) were recorded before, during, and after exposure to treatments, and diet consumption was estimated on a wet weight basis. The amounts of recombinant proteins added to diets were based on activity values derived from agglutination assays. Larvae (n=7 per treatment) were exposed to control diet; control diet containing ammonia (0.0002 v/w); diet containing recombinant GNA at a concentration of approx. 1.5% (w/w) of dietary protein (1.5 mg/5 g diet wet weight) and diet containing recombinant FP at a concentration of approx. 1.5% (w/w) of dietary protein for 24 h.

Assay [2] deals with Vth instar L. oleracea larvae. The assay is described as follows: Insect bioassay 2A: artificial diet feeding, 3 days. The note with it: 0.5% of dietary protein (0.5 mg/5 g diet), 3 days exposure, n=8. The assay is classed as in vivo, Lacanobia oleracea. The procedure:
as §1, with “assays.” for “assays. Larvae (n=7 per treatment) were exposed to control diet; control diet containing ammonia (0.0002 v/w); diet containing recombinant GNA at a concentration of approx. 1.5% (w/w) of dietary protein (1.5 mg/5 g diet wet weight) and diet containing recombinant FP at a concentration of approx. 1.5% (w/w) of dietary protein for 24 h.”
Larvae (n=8 per treatment) were exposed for 3 days to control diet; control diet containing ammonia; diet containing native GNA at approx. 0.5% (w/w) of dietary protein: diet containing native GNA and synthetic Manse-AS at a total concentration of approx. 0.5% (w/w) (i.e. ratio of GNA: Manse-AS equivalent to FP and diet containing FP at approx. 0.5% (w/w) of dietary protein.

With “GNA: Galanthus nivalis agglutinin (snowdrop lectin); standard GNA obtained from Vector Laboratories”, the “mean increase/decrease in weight of larvae” value in assay [1] is reported as “more than 50%”. Also, in assay [2], the “increase/decrease in mean wet weight of larvae” value is given as “four fold increase in weight; also recorded: fourfold increase in weight”.

On to “recombinant GNA: Galanthus nivalis agglutinin (snowdrop lectin), 109 residues, expressed in E. coli with N-terminal His tag, SEQ ID NO: 2”, for which, in assay [1], the “mean increase/decrease in weight of larvae” value is given as “more than 50%”.
